In article PMC6066796 (Antiviral Research, 2018):
Read-outs that look alike come from different tables or passages of the source.

How the values were obtained:
[1] = tested on: NiV-GFP2AM; assay: microbe, parasite or virus in culture; type: cell-based, Nipah virus
[2] = tested on: henipavirus (NiV, HeV); type: cell-based, Nipah virus, Hendra virus
[3] = tested on: SUDV (Gulu variant); type: cell-based
[4] = tested on: SUDV (Gulu variant); type: cell-based; remark: listed apart in the source
[5] = tested on: recombinant EBOV (Mayinga variant); type: cell-based, Ebola virus
[6] = tested on: RVFV-GFP, ZH501; assay: microbe, parasite or virus in culture; type: cell-based, Rift Valley Fever virus
[7] = tested on: hPIV3-GFP; assay: microbe, parasite or virus in culture; type: cell-based, human parainfluenza virus 3
[8] = tested on: EBOV-ZsG; assay: microbe, parasite or virus in culture; type: cell-based, Ebola virus
[9] = tested on: NiV-GFP2AM; assay: microbe, parasite or virus in culture; type: cell-based, Nipah virus; remark: listed apart in the source
[10] = tested on: EBOV (Makona variant); type: cell-based, Ebola virus
[11] = tested on: MARV-ZsG; type: cell-based, Marburg virus
[12] = tested on: reporter EBOVs; type: cell-based, Ebola virus
[13] = tested on: rgRSV224; assay: microbe, parasite or virus in culture; type: cell-based, respiratory syncytial virus
[14] = tested on: rMV^EZEGFP(3); type: cell-based, Measles virus
[15] = tested on: EBOV; conditions: at 1000 μM; cited from earlier work
[16] = tested on: Huh7 cells; conditions: human
[17] = tested on: NiV (Malaysian genotype); assay: microbe, parasite or virus in culture; type: cell-based, Nipah virus
[18] = tested on: NCI-H358 cells; conditions: human
[19] = tested on: SK-N-MC cells; conditions: human
[20] = tested on: HeLa cells; conditions: human
[21] = tested on: NCI-H358 cells
[22] = tested on: HeV; assay: microbe, parasite or virus in culture; type: cell-based, Hendra virus
[23] = tested on: NiV and EBOV; type: cell-based, Nipah virus, Ebola virus
[24] = Henipavirus nipahense, SAEC, in Homo sapiens

## 2′-monofluoro-4′-azidocytidine [2′F-4′N3-C]
[1]
  Effect on GFP expression: completely abolished
[2]
  Reduction of infectious henipavirus yields: 4–5 orders of magnitude
[3]
  EC50: ~10000 nM
[4]
  Reduction of infectious SUDV yield: approximately 1.5 orders of magnitude
[5]
  EC50: 7790 nM
[6]
  EC50: > 50000 nM
[7]
  EC50: 160 nM
[8]
  EC50: 3850 nM
[9]
  Effect on CPE: completely abolished
[10]
  Inhibition of FFU formation: did not detect significant inhibition
[11]
  EC50: > 50000 nM
  Inhibition of MARV infection by FFU assay: did not show any significant inhibition
[12]
  Antiviral activity against reporter EBOVs in Huh7 cells: significantly decreased antiviral activity
[13]
  EC50: 280 nM
[14]
  EC50: 270 nM

## NC(=O)c1nc(F)c[nH]c1=O [Favipiravir]
[15]
  Decrease of EBOV infectious yield: 4 logTCID50/mL

## [N-]=[N+]=N[C@]1(CO)O[C@@H](n2ccc(N)nc2=O)[C@H](O)[C@@H]1O [R1479, 4′-azidocytidine]
[16]
  R1479-TP level (intracellular triphosphate): 18 ± 0.6 pmol/million cells
[1]; [24]
  EC50: > 50000 nM
[17]
  SI (selective index): 2.9 ± 0.95 [>34]
[17]; Henipavirus nipahense, NCI-H358
  EC50: 2900 nM
[4]; at 25 μM
  Reduction of infectious SUDV titers: > 4 orders of magnitude
[5]
  EC50: 2600 nM
[18]
  R1479-TP level (intracellular triphosphate): 391 ± 72 pmol/million cells
[19]
  R1479-TP level (intracellular triphosphate): 42 ± 10 pmol/million cells
[6]; Rift Valley fever virus, NCI-H358
  EC50: > 50000 nM
[7]
  SI (selective index): 3.2 ± 0.50 [>32]
[7]; Human respirovirus 3, NCI-H358
  EC50: 3200 nM
[8]
  SI (selective index): 2.1 ± 0.07 [>47]
[8]; Zaire ebolavirus, NCI-H358
  EC50: 2100 nM
[9]; [24]
  EC50: > 50000 nM
[10]
  EC50: 2100 nM
  Inhibition of FFU formation: dose-dependent inhibition
[11]
  Inhibition of MARV infection by FFU assay: did not show any significant inhibition
[20]
  R1479-TP level (intracellular triphosphate): 136 ± 21 pmol/million cells
[21]
  Cytotoxicity (cell viability): mild cytotoxicity
[12]
  Antiviral activity against reporter EBOVs in Huh7 cells: significantly decreased antiviral activity
[22]
  SI (selective index): 2.1 ± 0.57 [>47]
[22]; Henipavirus hendraense, NCI-H358
  EC50: 2100 nM
[13]
  SI (selective index): 3.3 ± 0.39 [>30]
[13]; human respiratory syncytial virus, NCI-H358
  EC50: 3300 nM
[14]
  SI (selective index): 1.9 ± 0.12 [>52]

## [N-]=[N+]=N[C@]1(CO)O[C@@H](n2ccc(N)nc2=O)[C@@H](F)[C@@H]1O [RO-0622, 2′-deoxy-2′-β-fluoro-4′-azidocytidine]
[23]
  Antiviral activity against NiV and EBOV: little to no antiviral activity

## [N-]=[N+]=N[C@]1(CO)O[C@@H](n2ccc(N)nc2=O)[C@@H](O)[C@@H]1O [RO-9187, 2′-deoxy-2′-β-hydroxy-4′-azidocytidine]
[23]
  Antiviral activity against NiV and EBOV: little to no antiviral activity
